These are literature values, as cited in patent publication US6790849B2, “Methods and compositions using optically pure (-) cetirizine in combination with leukotriene inhibitors or decongestants” (Sepracor Inc., priority 1998, dated 2004).

Molecules are shown by their SMILES. Where two headings read alike, the source gives them in different places.

Data set [1] relates to LTD4. The following applies: guinea pigs.
Data set [2] has as its system LTD4. The following applies: in vivo.
The subject of data set [3] is three leukotrienes in conducting airway smooth muscle. The following applies: in vitro, laboratory animals and humans.
The subject of data set [4] is LTD4. The settings on record: in vivo. The source holds these as a separate data set.
For data set [5] the following is noted: for efficacy: 373 patients.
Data set [6] has as its system leukotriene (LTH4, LTC4, LTD4, and LTE4) formation.
For data set [7], the system named is leukotriene-dependent smooth muscle contractions. The following applies: in vitro, guinea pig and human airways.
The next data set deals with LTB4 formation. The following applies: several species.
For data set [8], the system named is allergen- or exercise-induced bronchoconstriction. The following applies: patients, doses as large as 20 mg.

In the case of `CC(C)(C)c1ccc(C(O)CCCN2CCC(C(O)(c3ccccc3)c3ccccc3)CC2)cc1` (stereo not drawn) [terfenadine], the “increase in airway resistance caused by LTD4” value in the data set with LTD4 [1] is “suppressed”.
With `COc1cc(C(=O)NS(=O)(=O)c2ccccc2C)ccc1Cc1cn(C)c2ccc(NC(=O)OC3CCCC3)cc12` [zafirlukast, 4-(5-cyclopentyloxy-carbonylamino-1-methyl-indol-8-ylmethyl)-3-methoxy-N-o-tolylsulfonylbenzamide], the “adverse effects reported in some patients” value is “headache, infection, nausea, diarrhea, pain, asthenia, abdominal pain, dizziness, myalgia, fever, vomiting, SGPT elevation, and dyspepsia”. Further, the “intradermal LTD4-induced increases in cutaneous vascular permeability” value in the data set with LTD4 [2] is “prevented”. Besides, the “contractile activity of three leukotrienes in conducting airway smooth muscle” value in data set [3] is “antagonized”. Moreover, in the data set on LTD4 [4], the “inhaled LTD4-induced influx of eosinophils into animal lungs” value is given as “inhibited”.
`CC(c1cc2ccccc2s1)N(O)C(N)=O` (racemic) [zileuton, (±)-1-(1-Benso[b]thien-2-ylethyl)-1-hydroxyurea]: the efficacy result was “failed to do so” in data set [5] (400 mg) and “required to provide efficacy” in data set [5] (600 mg four times daily). Besides, the “adverse effects reported in some patients” value in [5] (some patients) is “headache, pain, asthenia, dyspepsia, nausea, and myalgia”. The “leukotriene (LTH4, LTC4, LTD4, and LTE4) formation in vitro” value in [6] was “inhibit”. The “leukotriene-dependent smooth muscle contractions” value in data set [7] is recorded as “inhibits”. Moreover, the “LTB4 formation ex vivo” value with LTB4 formation is given as “inhibitor”.
As for `O=C(O)COCCN1CCN(C(c2ccccc2)c2ccc(Cl)cc2)CC1` (racemic) [cetirizine], the “preventing allergen- or exercise-induced bronchoconstriction” value in data set [8] is given as “not uniformly effective”.
